Consider three molecules from paper PMC9694965, “Design of 4-Substituted Sulfonamidobenzoic Acid Derivatives Targeting Coxsackievirus B3” (Life, 2022).

Series [1] has as its system CVB3 Nancy. The series is described as follows: Cytoprotection assay (MTT) in Vero cells infected with CVB3 Nancy. Format: cell-based, Coxsackievirus B3. As to conditions: for EC50: Enterovirus B, Vero cells infected with CVB3 Nancy at m.o.i. 0.001, 72 h, MTT, read-out: EC50 (50% cytoprotective concentration); for SI (selectivity index, ratio CC50/IC50): cytoprotection assay, CC50 72 h / EC50. The method, then:
(§1) Vero cells were seeded in 96-well plates in 24 h before the assay. On the assay day, the cells were washed with saline and tested compounds in appropriate concentrations (300–3 μg/mL) in MEM without FBS were added to cells. No compounds were added to virus control wells. The plates were incubated for 1 h at 37 °C at 5% CO2. The cells were then infected with CVB3 Nancy (m.o.i range of 1–0.001) and incubated for 72 h at 37 °C at 5% CO2. No virus was added to the cytotoxicity control wells. Cell viability was then assessed using an MTT test with the following procedure. The cells were washed with saline, and a solution of 3-(4,5-dimethylthiazolyl-2) 2,5-diphenyltetrazolium bromide (ICN Biochemicals Inc., Aurora, OH, USA) ([…]) in MEM was added to the wells (100 µL per well). After 2 h of incubation at 37 °C in 5% CO2, the supernatant from wells was discarded, and the formazan residue was dissolved in DMSO (100 µL per well). The optical density of cells was then measured on a Multiskan multifunctional reader (Thermo Fisher Scientific, Shanghai, China) at a wavelength of 540 nm.
The cytoprotective activity of compounds was considered to be their ability to increase the values of OD compared to control wells (using only a virus, without drugs). Based on the results obtained, the values of IC50, i.e., the concentration of compounds that result in 50% cells protection were calculated for m.o.i. 0.001 using GraphPad Prism 6.01 software.

The nature of series [2]: Cytotoxicity assay (MTT) in Vero cells. It is filed as cell-based. As to conditions: African green monkey; for CC50 at 24 h: 24 h incubation with the compound only; for CC50 at 72 h: 72 h incubation with the compound only. On the procedure: as §1
(§2) The microtetrazolium test (MTT) was used to study the cytotoxicity of the compounds. The permissive cell line Vero was seeded in 96-well plates in Eagles minimal essential medium (MEM) supplemented with 10% FBS. After 24 h, the media were removed, and the wells were washed with saline. Compounds were dissolved in DMSO, and a series of two-fold dilutions of each compound in MEM without FBS were prepared and added to the cells in triplicates. […] The MTT was then performed as described above. Next, the optical density of cells was measured on a Multiskan multifunctional reader (Thermo Fisher Scientific, Shanghai, China) at a wavelength of 540 nm and plotted against the concentration of the compounds to generate the dose–response curve. The 50% cytotoxic dose (CC50) of each compound (i.e., the compound concentration that causes the death of 50% of cells in a culture, or decreases the optical density twice, as compared to the control wells) was calculated using a four-parameter logistic nonlinear regression model (GraphPad Prism 6.01).

A further series relates to Vero cells. The series is described as follows: Cytotoxicity assay (MTT) in Vero cells. As to conditions: incubation with the compound only. It is filed as cell-based. The method, then:
as §1, §2

Series [3] concerns Coxsackievirus B3 (Nancy). The series is described as follows: Viral yield reduction assay in Vero cells. As to conditions: for IC50: Enterovirus B, B3 / CVB3, viral yield reduction, Vero cells, CVB3 Nancy at m.o.i. 0.01, 24 h, read-out: IC50 (50% virus-inhibiting concentration); for SI (selectivity index, ratio CC50/IC50): viral yield reduction assay, CC50 24 h / IC50. Format: cell-based. On the procedure: Coxsackievirus B3 (CVB3, strain Nancy) was obtained from the collection of viruses of the Pasteur Institute (St. Petersburg, Russia). The permissive cell line Vero (ATCC #CCL-81) was used in the study. Infectious titers (in a 50%-tissue culture infection dose, TCID50) were determined in Vero cells for CVB3 by endpoint dilution assay using the following procedure. Permissive cells were seeded into 96-wells plates in Eagles minimal essential medium (MEM) supplemented with 5% fetal bovine serum (FBS). After 24 h, the medium was aspirated, the wells were washed with saline, fresh MEM without FBS was added to the wells and the cells were infected with serial tenfold dilutions of virus stocks (100 µL per well, 4 wells for each dilution). The plates were incubated at +37 °C in 5% CO2 and observed daily for cytopathic effect (CPE). After 72 h the viral titer was calculated in TCID50 using the method of Spearmen-Carber.
The antiviral activity of the compounds was evaluated using viral yield reduction assay. The respective permissive cell line Vero was seeded in MEM supplemented with 5% FBS in 24-well plates. When the cell confluence reached 100%, the compounds tested were dissolved in DMSO, and a series of three-fold dilutions of each compound in MEM without FBS was added to the cells, and incubated at 37 °C in 5% CO2. After 1 h, the media were discarded; equal volumes of fresh serial dilutions of each compound and viral suspension in MEM without FBS at […] were added. In control wells, only MEM without FBS was added. No compounds were added in the virus control wells. The plates were incubated at 4 °C for 1 h. The unbound virus was then washed away and, again, three-fold dilutions of each compound (the final concentration 50–0.6 µg/mL) in MEM without FBS were added to the wells. After 24 h of incubation at 37 °C in 5% CO2, the infectious titer of viral progeny (in TCID50) for each compound concentration, cell control, and virus control wells were determined in permissive cell lines by endpoint dilution assay as described above.
The titer of virus progeny was plotted against log concentration of the compounds tested to generate the dose–response curve. The 50% inhibition concentration (IC50) of each compound tested (i.e., the compound concentration that decreases the infectious viral progeny titer twice, as compared to the control wells) was calculated using a four-parameter logistic nonlinear regression model (GraphPad Prism 6.01).

In series [4] the test system is CVB3 Nancy. The series is described as follows: Thermostability assay (capsid binding, heat inactivation of virus). As to conditions: pre-incubation 30 min at 37 °C, thermal gradient 37-55 °C for 2 min; for Effect on heat inactivation of CVB3 (capsid stabilization): versus virus control. Further details: species or system Coxsackievirus B3. The method, then: CVB3 Nancy was pre-incubated with the compounds tested or an equal volume of MEM (virus control) for 30 min at +37 °C in sterile thin-walled 200 μL PCR-tubes (7 tubes per each treatment condition) in BioRad CFX PCR-machine. The thermal gradient of 37–55 °C for 2 min was then applied, followed by rapid cooling to 4 °C. Subsequently, the infectious virus load at each thermal condition for each compound tested was quantified by end-point dilution assay.

Usually CC50 stands for the concentration that lowers cell viability or growth by half. A higher CC50 goes with lower toxicity to the cells. `O=C(O)c1ccc(NS(=O)(=O)c2ccc(N3C(=O)c4ccccc4C3=O)cc2)cc1` [Compound 2a, 4-(4-(1,3-Dioxoisoindolin-2-yl)phenylsulfonamido)benzoic acid, reference compound]: in the series on CVB3 Nancy [1], the EC50 was less than 8.76 µM and the “SI (selectivity index, ratio CC50/IC50)” value was greater than 81.1. In series [2], the CC50 at 24 h was greater than 1180 µM and the CC50 at 72 h is greater than 710 µM. Besides, in the series on Vero cells, the CC50 result is on record as “exceeded the maximum concentration used in the assay”. In series [3], the IC50 was found to be 5.54 ± 0.89 µM and the “SI (selectivity index, ratio CC50/IC50)” value was greater than 213. Besides, the “Effect on heat inactivation of CVB3 (capsid stabilization)” value in the series on CVB3 Nancy [4] was “heat inactivation of CVB3 changed to higher temperatures”.
For orientation: melting point means the temperature of the solid-liquid transition. In the case of `O=C(O)c1ccc(NS(=O)(=O)c2ccc(NC(=O)c3ccccc3C(=O)O)cc2)cc1` [Compound 4, 2-((4-(N-(4-Carboxyphenyl)sulfamoyl)phenyl)carbamoyl)benzoic acid], the melting point is 203 to 205 °C. For the same molecule, in the series on CVB3 Nancy [1], the EC50 worked out at 13.2 ± 1.49 µM and the “SI (selectivity index, ratio CC50/IC50)” value is greater than 17.2. In series [2], the CC50 at 24 h was greater than 1140 µM and the CC50 at 72 h was greater than 227 µM. In the series on Vero cells, the CC50 entry is recorded as “exceeded the maximum concentration used in the assay”. Further, in series [3], the IC50 worked out at 4.29 ± 1.79 µM and the “SI (selectivity index, ratio CC50/IC50)” value is reported as greater than 264. The “Temperature to which infectivity of CVB3 was preserved” value in the series with CVB3 Nancy [4] (concentrations greatly exceeding IC50) came out at 52.4 °C. Moreover, the “Effect on heat inactivation of CVB3 (capsid stabilization)” value with CVB3 Nancy [4] was “heat inactivation of CVB3 changed to higher temperatures”.
`O=C(O)c1ccc(NS(=O)(=O)c2ccc(N3C(=O)C4C5C=CC(C5)C4C3=O)cc2)cc1` (centres unmarked) [Compound 7c, 4-(4-(1,3-Dioxo-3a,4,7,7a-tetrahydro-1H-4,7-methanoisoindol-2(3H)-yl)phenylsulfonamido)benzoic acid] registered a melting point of 241 to 243 °C. For the same molecule, in the series on CVB3 Nancy [1], the EC50 is less than 8.44 µM and the “SI (selectivity index, ratio CC50/IC50)” value is recorded as greater than 81.1. In addition, in series [2], the CC50 at 24 h was greater than 1140 µM and the half-maximal cytotoxic concentration (CC50) at 72 h was greater than 684 µM. Also, the CC50 entry in the series with Vero cells was “exceeded the maximum concentration used in the assay”. Besides, in series [3], the IC50 stood at 19.6 ± 0.52 µM and the “SI (selectivity index, ratio CC50/IC50)” value is given as greater than 58.
